Reference: ChEMBL document CHEMBL3885881, “DrugMatrix”

Species on record: Rattus norvegicus
Experiment: DrugMatrix - Regimen: Daily Repeat
Format: toxicity, organism-based, Sprague-Dawley
Set-up: regimen Daily Repeat, gender Male, age 6-8 weeks
Conditions: in vivo, po, […], route oral GAVAGE; for ABSOLUTE BASOPHIL / ABSOLUTE EOSINOPHIL / ABSOLUTE LYMPHOCYTE / ABSOLUTE MONOCYTE / ABSOLUTE SEGMENTED NEUTROPHIL / BASOPHIL / EOSINOPHIL / ERYTHROCYTE COUNT / HEMATOCRIT / HEMOGLOBIN / LEUKOCYTE COUNT / LYMPHOCYTE / MEAN CORPUSCULAR HEMOGLOBIN / MEAN CORPUSCULAR HEMOGLOBIN CONCENTRATION / MEAN CORPUSCULAR VOLUME / MONOCYTE / NEUTROPHIL / NUCLEATED RED BLOOD CELLS / PLATELET COUNT: tissue Blood; for ALANINE AMINOTRANSFERASE / ALBUMIN / ALKALINE PHOSPHATASE / ASPARTATE AMINOTRANSFERASE / BLOOD UREA NITROGEN / CARBON DIOXIDE / CHLORIDE / CHOLESTEROL / CREATINE PHOSPHOKINASE / CREATININE / GLUCOSE / LACTATE DEHYDROGENASE / LIPASE / PHOSPHORUS / POTASSIUM / SODIUM / TOTAL BILIRUBIN / TOTAL PROTEIN / URIC ACID: tissue Plasma
[1] = 400 mg/kg, dose level Low, time 7 day
[2] = 1175 mg/kg, 72 h, dose level High, time 3 day
[3] = 1175 mg/kg, dose level High, time 7 day

ClC(Cl)(Cl)Cl [CARBON TETRACHLORIDE]
ABSOLUTE BASOPHIL [1]: 0 CELLS/uL | ABSOLUTE EOSINOPHIL [1]: 0 CELLS/uL | ABSOLUTE LYMPHOCYTE [1]: 12903.17 CELLS/uL | ABSOLUTE MONOCYTE [1]: 339.83 CELLS/uL | ABSOLUTE SEGMENTED NEUTROPHIL [1]: 990.33 CELLS/uL | BASOPHIL [1]: 0% | EOSINOPHIL [1]: 0% | ERYTHROCYTE COUNT [1]: 6.32 x10E6/uL | HEMATOCRIT [1]: 37.03% | HEMOGLOBIN [1]: 14.83 G/DL | LEUKOCYTE COUNT [1]: 14.23 x10E3/uL | LYMPHOCYTE [1]: 90.33% | MEAN CORPUSCULAR HEMOGLOBIN [1]: 23.5 pg | MEAN CORPUSCULAR HEMOGLOBIN CONCENTRATION [1]: 40.08 G/DL | MEAN CORPUSCULAR VOLUME [1]: 58.68 fL | MONOCYTE [1]: 2.17% | NEUTROPHIL [1]: 7.5% | NUCLEATED RED BLOOD CELLS [1]: 0 /100WBC | PLATELET COUNT [1]: 869.5 x10E3/uL | ALANINE AMINOTRANSFERASE [1]: 295.83 u/L | ALBUMIN [1]: 4.12 G/DL | ALKALINE PHOSPHATASE [1]: 598 u/L | ASPARTATE AMINOTRANSFERASE [1]: 469.33 u/L | BLOOD UREA NITROGEN [1]: 15.17 mg/dL | CARBON DIOXIDE [1]: 29 mmol/L | CHLORIDE [1]: 99.67 MEQ/L | CHOLESTEROL [1]: 34.17 mg/dL | CREATINE PHOSPHOKINASE [1]: 258.83 u/L | CREATININE [1]: 0.27 mg/dL | GLUCOSE [1]: 129 mg/dL | LACTATE DEHYDROGENASE [1]: 176.83 u/L | LIPASE [1]: 10 u/L | PHOSPHORUS [1]: 9.22 mg/dL | POTASSIUM [1]: 5.35 MEQ/L | SODIUM [1]: 142.35 MEQ/L | TOTAL BILIRUBIN [1]: 0.22 mg/dL | TOTAL PROTEIN [1]: 5.88 G/DL | URIC ACID [1]: 0.82 mg/dL | ABSOLUTE BASOPHIL [2]: 0 CELLS/uL | ABSOLUTE EOSINOPHIL [2]: 29 CELLS/uL | ABSOLUTE LYMPHOCYTE [2]: 12136.5 CELLS/uL | ABSOLUTE MONOCYTE [2]: 331.83 CELLS/uL | ABSOLUTE SEGMENTED NEUTROPHIL [2]: 869.33 CELLS/uL | BASOPHIL [2]: 0% | EOSINOPHIL [2]: 0.33% | ERYTHROCYTE COUNT [2]: 6.02 x10E6/uL | HEMATOCRIT [2]: 37.65% | HEMOGLOBIN [2]: 13.88 G/DL | LEUKOCYTE COUNT [2]: 13.37 x10E3/uL | LYMPHOCYTE [2]: 90.67% | MEAN CORPUSCULAR HEMOGLOBIN [2]: 23.13 pg | MEAN CORPUSCULAR HEMOGLOBIN CONCENTRATION [2]: 36.9 G/DL | MEAN CORPUSCULAR VOLUME [2]: 62.75 fL | MONOCYTE [2]: 2.5% | NEUTROPHIL [2]: 6.5% | NUCLEATED RED BLOOD CELLS [2]: 0.17 /100WBC | PLATELET COUNT [2]: 800.67 x10E3/uL | ALANINE AMINOTRANSFERASE [2]: 129 u/L | ALBUMIN [2]: 3.92 G/DL | ALKALINE PHOSPHATASE [2]: 531.5 u/L | ASPARTATE AMINOTRANSFERASE [2]: 232.83 u/L | BLOOD UREA NITROGEN [2]: 19.17 mg/dL | CARBON DIOXIDE [2]: 31.33 mmol/L | CHLORIDE [2]: 101.5 MEQ/L | CHOLESTEROL [2]: 41.67 mg/dL | CREATINE PHOSPHOKINASE [2]: 258.5 u/L | CREATININE [2]: 0.28 mg/dL | GLUCOSE [2]: 144.83 mg/dL | LACTATE DEHYDROGENASE [2]: 110 u/L | LIPASE [2]: 10.5 u/L | PHOSPHORUS [2]: 9.55 mg/dL | POTASSIUM [2]: 5.46 MEQ/L | SODIUM [2]: 145.42 MEQ/L | TOTAL BILIRUBIN [2]: 0.1 mg/dL | TOTAL PROTEIN [2]: 5.68 G/DL | URIC ACID [2]: 0.45 mg/dL | ABSOLUTE BASOPHIL [3]: 0 CELLS/uL | ABSOLUTE EOSINOPHIL [3]: 0 CELLS/uL | ABSOLUTE LYMPHOCYTE [3]: 11238.67 CELLS/uL | ABSOLUTE MONOCYTE [3]: 252 CELLS/uL | ABSOLUTE SEGMENTED NEUTROPHIL [3]: 1109.33 CELLS/uL | BASOPHIL [3]: 0% | EOSINOPHIL [3]: 0% | ERYTHROCYTE COUNT [3]: 6.55 x10E6/uL | HEMATOCRIT [3]: 37.82% | HEMOGLOBIN [3]: 14.68 G/DL | LEUKOCYTE COUNT [3]: 12.6 x10E3/uL | LYMPHOCYTE [3]: 89% | MEAN CORPUSCULAR HEMOGLOBIN [3]: 22.53 pg | MEAN CORPUSCULAR HEMOGLOBIN CONCENTRATION [3]: 38.87 G/DL | MEAN CORPUSCULAR VOLUME [3]: 57.97 fL | MONOCYTE [3]: 2% | NEUTROPHIL [3]: 9% | NUCLEATED RED BLOOD CELLS [3]: 0 /100WBC | PLATELET COUNT [3]: 761 x10E3/uL | ALANINE AMINOTRANSFERASE [3]: 302 u/L | ALBUMIN [3]: 3.77 G/DL | ALKALINE PHOSPHATASE [3]: 779.83 u/L | ASPARTATE AMINOTRANSFERASE [3]: 589.83 u/L | BLOOD UREA NITROGEN [3]: 17.67 mg/dL | CARBON DIOXIDE [3]: 30.5 mmol/L | CHLORIDE [3]: 98.83 MEQ/L | CHOLESTEROL [3]: 26.5 mg/dL | CREATINE PHOSPHOKINASE [3]: 269.67 u/L | CREATININE [3]: 0.24 mg/dL | GLUCOSE [3]: 122.83 mg/dL | LACTATE DEHYDROGENASE [3]: 182.5 u/L | LIPASE [3]: 9.17 u/L | PHOSPHORUS [3]: 9.22 mg/dL | POTASSIUM [3]: 5.74 MEQ/L | SODIUM [3]: 142.6 MEQ/L | TOTAL BILIRUBIN [3]: 0.22 mg/dL | TOTAL PROTEIN [3]: 5.7 G/DL | URIC ACID [3]: 0.47 mg/dL
